Laboratory results from ChEMBL document CHEMBL4316624, “Analyzing the role of cannabinoids as modulators of Wnt/β-catenin signaling pathway for their use in the management of neuropathic pain” (Bioorg Med Chem Lett, 2019).
Calls of active or inactive are those of the source. The calls are words filed in the database; no cut-off is given here.

Experiments:
HCT-116 [1] = test: Cytotoxicity against human HCT116 cells assessed as reduction in cell viability incubated for 72 hrs by MTT assay; type: cell-based; conditions: HCT-116, 72 h
OVCAR [2] = test: Cytotoxicity against human OVCAR cells assessed as reduction in cell viability incubated for 72 hrs by MTT assay; type: cell-based
A549 [3] = test: Cytotoxicity against human A549 cells assessed as reduction in cell viability incubated for 72 hrs by MTT assay; type: cell-based; conditions: A549, 72 h
MCF7 [4] = test: Cytotoxicity against human MCF7 cells assessed as reduction in cell viability incubated for 72 hrs by MTT assay; type: cell-based; conditions: MCF7, 72 h
PC-3 [5] = test: Cytotoxicity against human PC3 cells assessed as reduction in cell viability incubated for 72 hrs by MTT assay; type: cell-based; conditions: PC-3, 72 h
HepG2 [6] = test: Cytotoxicity against human HepG2 cells assessed as reduction in cell viability incubated for 72 hrs by MTT assay; type: cell-based; conditions: HepG2, 72 h
SH-SY5Y [7] = test: Cytotoxicity against human SH-SY5Y cells assessed as reduction in cell viability incubated for 72 hrs by MTT assay; type: cell-based
HCT-116 [8] = test: Cytotoxicity against human HCT116 cells assessed as reduction in cell viability incubated for 24 to 72 hrs by MTT assay; type: cell-based
OVCAR [9] = test: Cytotoxicity against human OVCAR cells assessed as reduction in cell viability incubated for 24 to 72 hrs by MTT assay; type: ADME, cell-based
A549 [10] = test: Cytotoxicity against human A549 cells assessed as reduction in cell viability incubated for 24 to 72 hrs by MTT assay; type: cell-based
MCF7 [11] = test: Cytotoxicity against human MCF7 cells assessed as reduction in cell viability incubated for 24 to 72 hrs by MTT assay; type: cell-based
PC-3 [12] = test: Cytotoxicity against human PC3 cells assessed as reduction in cell viability incubated for 24 to 72 hrs by MTT assay; type: cell-based
HepG2 [13] = test: Cytotoxicity against human HepG2 cells assessed as reduction in cell viability incubated for 24 to 72 hrs by MTT assay; type: cell-based
SH-SY5Y [14] = test: Cytotoxicity against human SH-SY5Y cells assessed as reduction in cell viability incubated for 24 to 72 hrs by MTT assay; type: cell-based
HepG2 [15] = test: Inhibition of Wnt/beta-catenin signaling pathway in human HepG2 cells assessed as reduction in TCF-dependent beta-catenin mediated transcription incubated for 24 hrs by Topflash reporter assay; type: cell-based
HepG2 [16] = test: Inhibition of Wnt/beta-catenin signaling pathway in human HepG2 cells assessed as reduction in TCF-dependent beta-catenin mediated transcription at 20 to 40 uM incubated for 24 hrs by Topflash reporter assay; type: cell-based
HepG2 [17] = test: Inhibition of Wnt/beta-catenin signaling pathway in human HepG2 cells assessed as reduction in TCF-dependent beta-catenin mediated transcription at 5 to 40 uM incubated for 24 hrs by Topflash reporter assay; type: cell-based

Row | Compound | IC50 (HCT-116 [1]) [µM] | IC50 (OVCAR [2]) [µM] | IC50 (A549 [3]) [µM] | IC50 (MCF7 [4]) [µM] | IC50 (PC-3 [5]) [µM] | IC50 (HepG2 [6]) [µM] | IC50 (SH-SY5Y [7]) [µM] | Activity (HCT-116 [8]) | Activity (OVCAR [9]) | Activity (A549 [10]) | Activity (MCF7 [11]) | Activity (PC-3 [12]) | Activity (HepG2 [13]) | Activity (SH-SY5Y [14]) | inhibition (HepG2 [15]) | inhibition (HepG2 [16]) | inhibition (HepG2 [17])
1 | C=C(C)[C@@H]1CC[C@H]2O[C@H]2[C@H]1c1c(O)cc(CCCCC)cc1O | 15.3 | 56.8 | 45.2 | 47.2 | 17.6 | 53 | 51 | Dose-dependent effect | Dose-dependent effect | Dose-dependent effect | Dose-dependent effect | Dose-dependent effect | Dose-dependent effect | Dose-dependent effect | Dose-dependent effect | – | –
2 | CCCCCc1cc(O)c2c(c1)OC(C)(CCC=C(C)C)C=C2 (configuration not stated) [CANNABICHROMENE] | 60 | 65 | 60 | 40 | 40 | 60 | 77 | Dose-dependent effect | Dose-dependent effect | Dose-dependent effect | Dose-dependent effect | Dose-dependent effect | Dose-dependent effect | Dose-dependent effect | – | inactive | –
3 | C=C(C)[C@@H]1CCC(C)=C[C@H]1c1c(O)cc(CCCCC)cc1O [CANNABIDIOL] | 18 | 50 | 40 | 55 | 12 | 42.8 | 48 | Dose-dependent effect | Dose-dependent effect | Dose-dependent effect | Dose-dependent effect | Dose-dependent effect | Dose-dependent effect | Dose-dependent effect | Dose-dependent effect | – | –
4 | C=C(C)[C@@H]1CCC(C)=C[C@H]1c1c(O)cc(CCC)cc1O [CANNABIDIVARIN] | 13 | 57 | 39 | 53 | 44 | 64 | 55 | Dose-dependent effect | Dose-dependent effect | Dose-dependent effect | Dose-dependent effect | Dose-dependent effect | Dose-dependent effect | Dose-dependent effect | Dose-dependent effect | – | –
5 | CCCCCc1cc(O)c2c(c1)OC(C)(C)c1ccc(C)cc1-2 [CANNABINOL] | 80 | 77 | 91 | 81 | 78 | 74 | 97 | Dose-dependent effect | Dose-dependent effect | Dose-dependent effect | Dose-dependent effect | Dose-dependent effect | Dose-dependent effect | Dose-dependent effect | – | – | inactive
6 | CCCCCc1cc(O)c2c(c1)OC(C)(C)[C@@H]1CCC(C)=C[C@@H]21 [DRONABINOL] | 42 | 63 | 45 | 57 | 65 | 59 | 50 | Dose-dependent effect | Dose-dependent effect | Dose-dependent effect | Dose-dependent effect | Dose-dependent effect | Dose-dependent effect | Dose-dependent effect | – | inactive | –
7 | CC[C@@H](C(=O)[C@@H](C)[C@@H](O)[C@H](C)[C@@H]1O[C@@H]([C@@H](CC)C(=O)O)CC[C@@H]1C)[C@H]1O[C@]2(C=C[C@@H](O)[C@]3(CC[C@@](C)([C@H]4CC[C@](O)(CC)[C@H](C)O4)O3)O2)[C@H](C)C[C@@H]1C [SALINOMYCIN] | – | – | – | – | – | 24.5 | – | – | – | – | – | – | – | – | Dose-dependent effect | – | –
8 | CCCc1cc(O)c2c(c1)OC(C)(C)[C@@H]1CCC(C)=C[C@@H]21 [TETRAHYDROCANNABIVARIN] | 83 | 75 | 90 | 80 | 79 | 75 | 95 | Dose-dependent effect | Dose-dependent effect | Dose-dependent effect | Dose-dependent effect | Dose-dependent effect | Dose-dependent effect | Dose-dependent effect | – | inactive | –
